Results published in patent US8415469B2, “Compounds and methods for kinase modulation, and indications therefor” (Plexxikon Inc., priority 2005, dated 2013).

Experiments:
Format in all cases: biochemical
[1] = molecular target: T1, Flt1 (Homo sapiens, UniProt P17948); assay: AlphaScreen kinase assay, Flt1; settings: read-out: IC50, activity toward kinase Flt1
T1 construct: P1826.pETN6 BI-PTP FLT1 M799-D1165-X WT; His6 (N); made in house; host or cells: E. coli (PTP1B co-expressed)
T1 sequence (P17948 with tags, fused parts or gaps): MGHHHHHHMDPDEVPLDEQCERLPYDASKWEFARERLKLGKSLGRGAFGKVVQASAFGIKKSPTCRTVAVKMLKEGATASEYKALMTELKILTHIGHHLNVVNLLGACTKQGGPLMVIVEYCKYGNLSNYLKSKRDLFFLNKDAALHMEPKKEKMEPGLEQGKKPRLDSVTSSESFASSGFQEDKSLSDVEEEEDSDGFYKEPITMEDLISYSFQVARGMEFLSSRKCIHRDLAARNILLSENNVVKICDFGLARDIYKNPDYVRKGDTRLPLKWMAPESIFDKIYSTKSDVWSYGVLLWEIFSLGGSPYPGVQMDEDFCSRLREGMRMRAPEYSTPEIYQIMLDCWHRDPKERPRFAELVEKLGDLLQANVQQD

[2] = molecular target: T2, Jnk1 (Homo sapiens, UniProt P45983); assay: AlphaScreen kinase assay, Jnk1; settings: read-out: IC50, activity toward kinase Jnk1
T2 construct: purchased Upstate Biotechnology
T2 sequence (P45983 whole entry): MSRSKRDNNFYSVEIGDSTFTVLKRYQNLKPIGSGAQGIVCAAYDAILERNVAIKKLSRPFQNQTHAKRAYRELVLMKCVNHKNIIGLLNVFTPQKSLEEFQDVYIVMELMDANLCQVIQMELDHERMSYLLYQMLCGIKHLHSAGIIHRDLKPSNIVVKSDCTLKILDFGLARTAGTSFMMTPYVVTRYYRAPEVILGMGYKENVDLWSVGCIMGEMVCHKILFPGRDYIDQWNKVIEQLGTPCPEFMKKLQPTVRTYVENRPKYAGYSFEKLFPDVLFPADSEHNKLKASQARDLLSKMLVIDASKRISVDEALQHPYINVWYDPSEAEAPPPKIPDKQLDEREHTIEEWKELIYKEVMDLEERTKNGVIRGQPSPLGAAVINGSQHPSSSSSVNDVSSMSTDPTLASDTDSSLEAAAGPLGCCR

[3] = molecular target: T3, Abl (Homo sapiens, UniProt P00519); assay: AlphaScreen kinase assay, Abl; settings: read-out: activity toward kinase Abl, IC50
T3 construct: P1121. pET-SPEC BI-PTP Abl G227-V515-X; His6 (N); made in house; host or cells: E. coli (PTP1B co-expressed)
T3 sequence (P00519 with tags, fused parts or gaps): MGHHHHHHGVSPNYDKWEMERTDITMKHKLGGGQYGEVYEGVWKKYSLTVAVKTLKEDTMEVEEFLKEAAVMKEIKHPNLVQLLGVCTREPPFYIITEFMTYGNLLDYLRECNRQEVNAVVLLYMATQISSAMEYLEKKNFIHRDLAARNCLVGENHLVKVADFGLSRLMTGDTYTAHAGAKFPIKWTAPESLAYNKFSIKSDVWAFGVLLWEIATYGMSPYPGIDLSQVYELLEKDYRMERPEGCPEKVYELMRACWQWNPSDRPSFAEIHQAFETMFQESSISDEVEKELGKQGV
In short: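 Biotinylated peptide substrate phosphorylation detected by AlphaScreen with phospho-specific antibody acceptor beads and streptavidin donor beads. Compounds tested as 8-point 1:3 serial dilutions from 20 mM DMSO stocks.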

[4] = molecular target: T4, Src (Homo sapiens, UniProt P12931); assay: AlphaScreen kinase assay, Src; settings: read-out: IC50, activity toward kinase Src
T4 construct: P1144. pET-N6 BI-PTP SRC V86-L536-X; made in house
T4 sequence (P12931 with tags, fused parts or gaps): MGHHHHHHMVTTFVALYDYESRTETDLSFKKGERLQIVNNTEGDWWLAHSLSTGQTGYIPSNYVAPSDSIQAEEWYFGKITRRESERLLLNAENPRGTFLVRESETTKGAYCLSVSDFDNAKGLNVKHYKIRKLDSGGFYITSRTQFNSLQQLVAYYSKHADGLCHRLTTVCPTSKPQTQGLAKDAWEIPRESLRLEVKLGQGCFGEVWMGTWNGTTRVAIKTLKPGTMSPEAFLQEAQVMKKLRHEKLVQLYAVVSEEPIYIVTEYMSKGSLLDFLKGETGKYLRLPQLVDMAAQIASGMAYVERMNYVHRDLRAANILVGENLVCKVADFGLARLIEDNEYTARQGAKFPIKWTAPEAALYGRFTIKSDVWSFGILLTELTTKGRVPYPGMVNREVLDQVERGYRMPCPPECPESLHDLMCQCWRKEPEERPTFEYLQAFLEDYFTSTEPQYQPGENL

[5] = molecular target: T5, c-Raf-1 (Homo sapiens, UniProt P04049); assay: AlphaScreen kinase assay, c-Raf-1; settings: read-out: IC50, activity toward kinase c-Raf-1
T5 construct: purchased Upstate Biotechnology
T5 sequence (P04049 whole entry): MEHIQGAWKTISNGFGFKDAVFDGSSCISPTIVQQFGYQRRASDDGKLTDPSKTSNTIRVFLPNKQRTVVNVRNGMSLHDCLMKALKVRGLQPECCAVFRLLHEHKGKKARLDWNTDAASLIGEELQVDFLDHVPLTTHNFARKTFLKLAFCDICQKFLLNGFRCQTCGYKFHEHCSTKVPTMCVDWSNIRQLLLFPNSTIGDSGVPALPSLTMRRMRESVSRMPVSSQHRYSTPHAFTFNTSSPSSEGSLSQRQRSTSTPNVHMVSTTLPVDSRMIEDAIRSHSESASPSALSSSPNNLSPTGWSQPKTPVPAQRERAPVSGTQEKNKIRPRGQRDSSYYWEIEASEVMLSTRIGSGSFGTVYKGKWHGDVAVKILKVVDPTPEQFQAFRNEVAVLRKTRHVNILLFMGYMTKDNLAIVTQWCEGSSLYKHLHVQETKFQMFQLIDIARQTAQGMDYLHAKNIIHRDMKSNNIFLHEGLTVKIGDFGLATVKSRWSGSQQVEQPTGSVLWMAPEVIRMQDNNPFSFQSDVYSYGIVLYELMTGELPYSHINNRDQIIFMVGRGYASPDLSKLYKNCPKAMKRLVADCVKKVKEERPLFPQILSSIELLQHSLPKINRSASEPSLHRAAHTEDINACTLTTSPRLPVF

[6] = molecular target: T6, Fak (Homo sapiens, UniProt Q05397); assay: AlphaScreen kinase assay, Fak; settings: read-out: IC50, activity toward kinase Fak
T6 construct: P1358.pFastBacHtb FAK S411-Q686-X; His6 with pFastBacHTb leader (TEV site) (N); made in house; host or cells: Sf9 (baculovirus)
T6 sequence (Q05397 411-686): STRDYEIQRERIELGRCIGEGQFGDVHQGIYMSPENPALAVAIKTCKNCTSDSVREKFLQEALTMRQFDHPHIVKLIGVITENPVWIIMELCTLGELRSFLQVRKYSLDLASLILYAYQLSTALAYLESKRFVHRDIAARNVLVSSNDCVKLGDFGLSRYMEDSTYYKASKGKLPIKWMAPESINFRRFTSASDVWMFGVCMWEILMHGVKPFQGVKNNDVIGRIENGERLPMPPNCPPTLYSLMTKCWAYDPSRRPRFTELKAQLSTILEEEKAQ

Measured: IC50

CC(=O)Nc1cccc(-c2cnc3[nH]cc(C(=O)c4cc(O)ccc4F)c3c2)c1 [Compound P-0001]
≤ 10 µM: all assays above

Nc1cccc(-c2cnc3[nH]cc(C(=O)c4cc(O)ccc4F)c3c2)c1 [Compound P-0002]
≤ 10 µM: all assays above

O=C(c1cc(O)ccc1F)c1c[nH]c2ncccc12 [Compound P-0005]
≤ 10 µM: [1] | [3] | [4] | [5]

CCCS(=O)(=O)Nc1ccc(F)c(C(=O)c2c[nH]c3ncccc23)c1F [Compound P-0007, Propane-1-sulfonic acid [2,4-difluoro-3-(1H-pyrrolo[2,3-b]pyridine-3-carbonyl)-phenyl]-amide]
≤ 10 µM: [3] | [4] | [5] | [6]

O=C(O)/C=C/c1cccc(-c2cnc3[nH]cc(C(=O)c4cc(O)ccc4F)c3c2)c1 [Compound P-0010]
≤ 10 µM: [2] | [3] | [4] | [5]

O=C(c1cccc(O)c1)c1c[nH]c2ncccc12 [Compound P-0011]
≤ 10 µM: [1] | [3]

O=C(c1cccc(O)c1)c1c[nH]c2nccc(Cl)c12 [Compound P-0012]
≤ 10 µM: [1] | [3]

O=C(c1cccc(O)c1)c1c[nH]c2ncc(Nc3ccccc3)cc12 [Compound P-0025]
not listed: [1]
≤ 10 µM: all other assays above

Cc1ccc(F)cc1C(=O)c1c[nH]c2ncc(-c3cccc(NS(C)(=O)=O)c3)cc12 [Compound P-0028]
≤ 10 µM: [3] | [4]

O=C(c1cc(O)ccc1F)c1c[nH]c2ncc(-c3cccs3)cc12 [Compound P-0032]
≤ 10 µM: all assays above

O=C(O)/C=C/c1cccc(-c2cnc3[nH]cc(C(=O)c4ccccc4F)c3c2)c1 [Compound P-0033]
≤ 10 µM: [1] | [2] | [3]

Cc1ccc(F)cc1C(=O)c1c[nH]c2ncc(-c3cccc(N)c3)cc12 [Compound P-0040]
≤ 10 µM: [2] | [3] | [4]

Cn1cc(C(F)(F)F)c(-c2ccc(S(=O)(=O)NCc3c[nH]c4ncccc34)s2)n1 [Compound P-0041]
≤ 10 µM: [1] | [3] | [4]

O=C(c1cc(O)ccc1F)c1c[nH]c2ncc(-c3ccccc3)cc12 [Compound P-0045]
not listed: [1]
≤ 10 µM: all other assays above

O=C(c1cccc(O)c1)c1c[nH]c2ncc(-c3cccnc3)cc12 [Compound P-0048]
≤ 10 µM: [3]

Cc1ccc(F)cc1C(=O)c1c[nH]c2ncc(-c3ccc(C(N)=O)cc3)cc12 [Compound P-0050]
≤ 10 µM: [3]

Oc1cccc(Cc2c[nH]c3ncc(-c4ccsc4)cc23)c1 [Compound P-0056]
≤ 10 µM: [1] | [2] | [3]

Cc1ccc(S(=O)(=O)NCc2c[nH]c3ncccc23)cc1 [Compound P-0058]
≤ 10 µM: [3]

O=C(c1cc(O)ccc1F)c1c[nH]c2ncc(Br)cc12 [Compound P-0068, (5-Bromo-1H-pyrrolo[2,3-b]pyridin-3-yl)-(2-fluoro-5-hydroxy-phenyl)-methanone]
≤ 10 µM: [1] | [3] | [4]

Cc1ccc(S(=O)(=O)NCc2c[nH]c3nccc(-c4cccc(C#N)c4)c23)cc1 [Compound P-0072]
≤ 10 µM: [1] | [3] | [4]

COc1ccc(F)c(C(=O)c2c[nH]c3ncc(-c4cccnc4)cc23)c1 [Compound P-0090]
not listed: [6]
≤ 10 µM: all other assays above

Oc1cc(O)cc(Cc2c[nH]c3ncc(-c4ccsc4)cc23)c1 [Compound P-0093]
≤ 10 µM: [3]

O=C(c1ccccc1F)c1c[nH]c2ncc(-c3ccsc3)cc12 [Compound P-0134]
≤ 10 µM: [1] | [2] | [3] | [4]

O=C(c1cccc(O)c1)c1c[nH]c2ncc(-c3cccs3)cc12 [Compound P-0196]
not listed: [5]
≤ 10 µM: all other assays above

CCCS(=O)(=O)Nc1ccc(F)c(C(=O)c2c[nH]c3ncc(OC)cc23)c1F [Compound P-0806, Propane-1-sulfonic acid [2,4-difluoro-3-(5-methoxy-1H-pyrrolo[2,3-b]pyridine-3-carbonyl)-phenyl]-amide]
≤ 10 µM: [3] | [4] | [5] | [6]

CCCCNC(=O)Nc1ccc(F)c(C(=O)c2c[nH]c3ncc(-c4cccnc4)cc23)c1F [Compound P-1318, 1-Butyl-3-[2,4-difluoro-3-(5-pyridin-3-yl-1H-pyrrolo[2,3-b]pyridine-3-carbonyl)-phenyl]-urea]
≤ 10 µM: all assays above

COc1cccc(C(=O)c2c[nH]c3ncc(-c4cccc(NC(C)=O)c4)cc23)c1F [Compound P-1336, N-{3-[3-(2-Fluoro-3-methoxy-benzoyl)-1H-pyrrolo[2,3-b]pyridin-5-yl]-phenyl}-acetamide]
not listed: [1]
≤ 10 µM: all other assays above

OCCOc1ccc(F)c(Cc2c[nH]c3ncc(-c4cccnc4)cc23)c1F [Compound P-1394, 2-[2,4-Difluoro-3-(5-pyridin-3-yl-1H-pyrrolo[2,3-b]pyridin-3-ylmethyl)-phenoxy]-ethanol]
≤ 10 µM: [2] | [3] | [4] | [6]

COc1cc(OC)cc(C(=O)c2c[nH]c3ncc(-c4cccc(NS(C)(=O)=O)c4)cc23)c1 [Compound P-1426, N-{3-[3-(3,5-Dimethoxy-benzoyl)-1H-pyrrolo[2,3-b]pyridin-5-yl]-phenyl}-methanesulfonamide]
≤ 10 µM: [1] | [3]
